From ChEMBL document CHEMBL1938325, “Synthesis of new 5,6-dihydrobenzo[h]quinazoline 2,4-diamino substituted and antiplatelet/antiphlogistic activities evaluation” (Bioorg Med Chem Lett, 2012)
The source made the active and inactive calls. No cut-off for these calls is given here.

Columns and labels:
[1] = Antiplatelet activity against guinea pig platelet-rich plasma assessed as inhibition of arachidonic acid-induced platelet aggregation measured within 3 hrs by turbidimetric method; assay type: functional; settings: Cavia porcellus
[2] = Antiplatelet activity against guinea pig platelet-rich plasma assessed as inhibition of ADP-induced platelet aggregation measured within 3 hrs by turbidimetric method; assay type: functional; settings: Cavia porcellus
[3] = Antiplatelet activity against guinea pig platelet-rich plasma assessed as inhibition of U46619-induced platelet aggregation measured within 3 hrs by turbidimetric method; assay type: functional; settings: Cavia porcellus
Mus musculus [4] = experiment: Antinociceptive activity in Swiss mouse assessed as inhibition of acetic acid induced writhing at 100 mg/kg, po measured every 5 mins for 45 mins; assay type: functional
Rattus norvegicus [5] = experiment: Antiphlogistic activity in Wistar rat assessed as inhibition of carrageenan-induced paw oedema at 100 mg/kg, po; assay type: functional
Rattus norvegicus [6] = experiment: Antiphlogistic activity in Wistar rat assessed as inhibition of carrageenan-induced paw oedema at 50 mg/kg, po; assay type: functional
Rattus norvegicus [7] = experiment: Antiphlogistic activity in Wistar rat assessed as inhibition of carrageenan-induced paw oedema at 25 mg/kg, po; assay type: functional
[8] = biological target: T1, Prostaglandin G/H synthase 2 (Homo sapiens) (UniProt P35354); experiment: Inhibition of COX-2 at 1 mM
T1 sequence (whole entry): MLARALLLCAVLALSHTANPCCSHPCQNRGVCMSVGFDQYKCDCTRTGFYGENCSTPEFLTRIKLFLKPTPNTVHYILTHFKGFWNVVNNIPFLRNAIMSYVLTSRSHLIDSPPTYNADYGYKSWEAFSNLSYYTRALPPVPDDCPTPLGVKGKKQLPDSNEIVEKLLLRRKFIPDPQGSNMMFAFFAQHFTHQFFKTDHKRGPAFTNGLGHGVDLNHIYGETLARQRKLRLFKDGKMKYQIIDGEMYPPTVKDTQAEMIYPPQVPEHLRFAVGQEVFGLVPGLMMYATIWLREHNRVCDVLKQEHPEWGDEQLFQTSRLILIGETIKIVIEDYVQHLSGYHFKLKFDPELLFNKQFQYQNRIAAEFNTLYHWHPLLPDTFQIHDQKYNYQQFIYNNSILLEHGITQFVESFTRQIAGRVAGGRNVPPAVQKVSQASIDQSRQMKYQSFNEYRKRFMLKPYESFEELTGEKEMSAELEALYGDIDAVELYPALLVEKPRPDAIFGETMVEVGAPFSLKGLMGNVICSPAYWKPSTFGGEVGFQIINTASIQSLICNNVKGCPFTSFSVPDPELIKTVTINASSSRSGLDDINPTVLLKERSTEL

[9] = biological target: Prostaglandin G/H synthase 1 (Homo sapiens) (UniProt P23219); experiment: Inhibition of COX-1 at 1 mM
Sequence of Prostaglandin G/H synthase 1 (Homo sapiens) (P23219 whole entry): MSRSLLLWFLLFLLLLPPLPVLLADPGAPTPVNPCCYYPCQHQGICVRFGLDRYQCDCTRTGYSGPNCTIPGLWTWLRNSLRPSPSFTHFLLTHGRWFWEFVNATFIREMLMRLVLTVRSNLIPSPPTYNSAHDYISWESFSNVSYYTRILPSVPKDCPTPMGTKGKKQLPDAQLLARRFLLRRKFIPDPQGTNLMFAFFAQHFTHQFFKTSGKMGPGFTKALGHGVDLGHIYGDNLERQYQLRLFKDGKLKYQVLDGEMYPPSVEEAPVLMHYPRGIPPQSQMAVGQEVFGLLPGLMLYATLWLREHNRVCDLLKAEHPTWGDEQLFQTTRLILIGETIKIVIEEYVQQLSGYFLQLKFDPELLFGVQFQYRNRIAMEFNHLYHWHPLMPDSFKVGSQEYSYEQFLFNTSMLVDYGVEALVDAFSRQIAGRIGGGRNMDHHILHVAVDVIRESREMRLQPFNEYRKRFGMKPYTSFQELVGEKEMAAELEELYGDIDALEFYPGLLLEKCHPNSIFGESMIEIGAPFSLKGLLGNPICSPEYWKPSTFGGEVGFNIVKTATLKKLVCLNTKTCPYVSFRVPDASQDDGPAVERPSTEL

Platelet [10] = experiment: Antiplatelet activity against guinea pig platelet-rich plasma assessed as inhibition of U46619-induced platelet aggregation up to 500 uM measured within 3 hrs by turbidimetric method; assay type: functional; settings: Cavia porcellus
Platelet [11] = experiment: Antiplatelet activity against guinea pig platelet-rich plasma assessed as inhibition of ADP-induced platelet aggregation up to 500 uM measured within 3 hrs by turbidimetric method; assay type: functional; settings: Cavia porcellus
Mus musculus [12] = experiment: Antinociceptive activity in Swiss mouse assessed as inhibition of acetic acid induced writhing at 50 mg/kg, po measured every 5 mins for 45 mins; assay type: functional
Rattus norvegicus [13] = experiment: Antiphlogistic activity in Wistar rat assessed as inhibition of carrageenan-induced paw oedema at 10 mg/kg, po; assay type: functional
Mus musculus [14] = experiment: Toxicity in Swiss mouse assessed as effect on spontaneous locomotion activity at 25 to 100 mg/kg, po by classic open filed test; assay type: organism-based; design: dose 25-100 mg/kg, route oral; settings: in vivo
Mus musculus [15] = experiment: Antinociceptive activity in Swiss mouse assessed as inhibition of acetic acid induced writhing at 25 mg/kg, po measured every 5 mins for 45 mins; assay type: functional
Mus musculus [16] = experiment: Toxicity in Swiss mouse assessed as sedation at 25 to 100 mg/kg, po; assay type: organism-based; design: dose 25-100 mg/kg, route oral; settings: in vivo

Compound | IC50 [1] [µM] | IC50 [2] [µM] | IC50 [3] [µM] | inhibition in vivo at 100 mg/kg (Mus musculus [4]) [%] | inhibition in vivo at 100 mg/kg (Rattus norvegicus [5]) [%] | inhibition in vivo at 50 mg/kg (Rattus norvegicus [6]) [%] | inhibition in vivo at 25 mg/kg (Rattus norvegicus [7]) [%] | Imax [8] [%] | Imax [9] [%] | inhibition (Platelet [10]) | inhibition (Platelet [11]) | inhibition in vivo at 50 mg/kg (Mus musculus [12]) [%] | inhibition in vivo at 10 mg/kg (Rattus norvegicus [13]) [%] | Activity (Mus musculus [14]) | inhibition in vivo at 25 mg/kg (Mus musculus [15]) [%] | Activity (Mus musculus [16])
Nc1nc(Nc2ccccc2)c2c(n1)-c1ccccc1CC2 | 89 | 311 | 205 | 15 | 54 | 53 | 0 | 38.6 | 50.5 | – | – | – | – | – | – | –
Nc1nc2c(c(N3CCOCC3)n1)CCc1ccccc1-2 | 224 | 341 | – | 19 | 40 | 0 | – | – | – | inactive | – | – | – | – | – | –
CC(=O)Oc1ccccc1C(=O)O [ASPIRIN] | 45 | > 500 | – | – | – | – | – | – | – | inactive | – | – | – | – | – | –
Nc1nc2c(c(N3CCCC3)n1)CCc1ccccc1-2 | 166 | 307 | – | 30 | 42 | 42 | 0 | – | – | inactive | – | – | – | – | – | –
CNc1nc(Nc2ccccc2)c2c(n1)-c1ccccc1CC2 | 105 | – | – | 54 | 5 | – | – | – | – | inactive | inactive | 0 | – | – | – | –
Nc1nc2c(c(N3CCCCC3)n1)CCc1ccccc1-2 | 68 | 336 | 385 | 0 | 31 | 41 | 0 | – | – | – | – | – | – | – | – | –
COc1ccc2c(c1)c(CC(=O)O)c(C)n2C(=O)c1ccc(Cl)cc1 [INDOMETHACIN] | – | – | – | – | – | – | – | – | – | – | – | – | 45 | – | – | –
CN(C)c1nc(Nc2ccccc2)c2c(n1)-c1ccccc1CC2 | 46 | > 500 | – | 64 | 0 | – | – | 50.7 | 28.7 | inactive | – | 51 | – | Non-toxic | 0 | Non-toxic
Nc1nc(NCCc2ccccc2)c2c(n1)-c1ccccc1CC2 | 89 | – | – | 54 | 19 | 20 | – | – | – | inactive | inactive | 32 | – | – | – | –
Nc1nc(NCc2ccccc2)c2c(n1)-c1ccccc1CC2 | 200 | – | – | 62 | 23 | – | – | – | – | inactive | inactive | 8 | – | – | – | –
